Holding throughout (experiment): DTP human tumour cell line panel, 48 h
In assay [1] the test system is DMS-114.
For assay [2], the system named is NCI-H226.
The test system of assay [3] is DLD-1.
In assay [4] the test system is HL-60.
Assay [5] relates to SR.
Assay [6] relates to EKVX.
The test system of assay [7] is SF-268.
The subject of assay [8] is OVCAR-5.
The subject of assay [9] is DMS-273.
Assay [10] has as its system OVCAR-3.
Assay [11] has as its system COLO 205.
For assay [12], the system named is CCRF-CEM.
Assay [13] relates to UACC-257.
Assay [14] deals with HOP-62.
Assay [15] concerns MOLT-4.
In assay [16] the test system is SF-539.
Assay [17] deals with Malme-3M.
Assay [18] has as its system OVCAR-4.
Assay [19] concerns HCT-15.
Assay [20] has as its system SNB-19.

SMILES strings stand for the structures.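 Growth conditions: 96-well plates. Treatment: test compound, 48 hours, 5 concentrations. Analysis: linear interpolation between bracketing concentrations; unreached endpoints set to highest concentration. At the GI50, growth is halved.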 The source made the active and inactive calls. No stated cut-off is given here; in the data, active = GI50 up to about 1.1 µM and inactive = higher.

What is called GI50 is the concentration at which growth is held to half of that of the control. As to `CCC(=O)c1c(NOC2OCC(OC(C)=O)C(OC(C)=O)C2OC(C)=O)nc(OC)n(C)c1=O` (stereo not given), the GI50 in assay [1], in assay [2], in assay [3], in assay [4], in assay [5] and in assay [6] was > 100 µM (inactive) each time. Besides, the GI50 in assay [7], in assay [8], in assay [9], in [10], in [11] and in assay [12] was > 100 µM (inactive) each time. In addition, the GI50 in [13], in assay [14], in assay [15], in assay [16], in assay [17] and in assay [18] was > 100 µM (inactive) throughout. For the same compound, the GI50 in [19] is above 100 µM; in [20], > 100 µM (inactive).
Turning to `CC(C)C(=O)N1C(=O)O[C@@H](c2ccccc2)[C@H]1C`, the GI50 in assay [1], in [2], in assay [3], in assay [4], in [5] and in [6] was > 100 µM (inactive) throughout. In addition, the GI50 in [7], in [8], in [9], in [10], in assay [11] and in assay [12] was > 100 µM (inactive) throughout. Moreover, the GI50 in [13], in assay [14], in assay [15], in [16], in [17] and in assay [18] was > 100 µM (inactive) each time. In addition, the GI50 is above 100 µM in assay [19] and > 23.6 µM (inactive) in [20].

The record behind these values is ChEMBL document CHEMBL1201862, “PubChem BioAssay data set” (2004).
